Assay: Stability of the amidite intermediate on storage (UPLC/HPLC analysis)
Format: physicochemical
Method: The following conditions were used for the analysis of compound 5.
Mobile phase [A]: 60 mM ammonia-ammonium acetate-containing buffer solution (pH 8.0), Mobile phase [B]: acetonitrile
Gradient: 15% solvent [B] was kept for 0.5 minutes, then linear gradient from 15% to 50% solvent [B] was performed in 2.5 minutes, linear gradient from 50% to 65% solvent [B] was performed in 9 minutes, linear gradient from 65% to 95% solvent [B] was performed in 3 minutes, and 95% solvent [B] was kept for 1 minute.
Column: ACQUITY UPLC (registered trademark) BEH Phenyl (1.7 μm, i.d. 2.1×100 mm) (Waters)
UV Detection wavelength: 295 nm
The following conditions were used for the analysis of comparative compound.
Mobile phase [A]: 10 mM ammonium formate-containing aqueous solution, Mobile phase [B]: methanol
Gradient: 97% solvent [B] was kept for 20 minutes.
Column: Triart (registered trademark) C8 (3 μm, i.d. 4.6×100 mm) (YMC)
Detector: Corona CAD, Corona CAD detection conditions: 60 Hz, BCD polarity+, pressure 35±1 psi, total flow rate 1.53 mL/min

## CC(C)N(C(C)C)P(OCCC#N)OC(CN1C(=O)c2ccccc2C1=O)CN1C(=O)c2ccccc2C1=O (centres unmarked) [Compound 5]
40° C. for 50 days
  Decomposition on storage: No decomposition
40° C., after 7 days
  Stability (analysis value): 99.6%
40° C., after 50 days
  Stability (analysis value): 99.7%
40° C., initial
  Stability (analysis value): 99.6%

## CCCCCCCCCCCCCCCCCCCC(=O)NCC(CNC(=O)CCCCCCCCCCCCCCCCCCC)OP(OCCC#N)N(C(C)C)C(C)C (centres unmarked) [Comparative compound]
−20° C., after 7 months
  Stability (analysis value): 33.8%
−20° C., after 71 days
  Stability (analysis value): 42.0%
−20° C., initial
  Stability (analysis value): 54.3%
−20° C., over time
  Decomposition on storage: unstable

From US12351804B2, “Production method for bifurcated lipid-linked oligonucleotide, and intermediate” (Shionogi & Co., Ltd., priority 2019, dated 2025)
